The text below walks through data of paper PMC9501810, “Bitter Peptides YFYPEL, [sequence], and [sequence], Released during Gastric Digestion of Casein, Stimulate Mechanisms of Gastric Acid Secretion via Bitter Taste Receptors TAS2R16 and TAS2R38” (Journal of Agricultural and Food Chemistry, 2022).

Series [1] concerns HGT-1 cells. The series can be described thus: Proton secretion assay (intracellular proton index IPX, SNARF-1-AM). Type of series: cell-based, human. The settings on record: for ΔIPX (change in intracellular proton index vs untreated cells): 10 min incubation in KRHB, n = 4–8; for ΔIPX (change in intracellular proton index vs untreated cells) / ΔIPX on co-incubation with probenecid: mean ± SEM; for proton secretion with peptide alone compared to untreated control cells: VAPFPEVF 17.5 µM, YFYPEL 0.03 µM, YQEPVLGPVRGPFPIIV 0.4 µM, p < 0.01; for proton secretion with peptide alone compared to untreated control cells / ΔIPX on co-incubation with probenecid: 10 min; for concentration with the lowest IPX value (minimum of curve fit; highest impact on secretory activity): curve fit over 0.01–200 µM proton secretion profile; for ΔIPX on co-incubation with probenecid: peptide (VAPFPEVF 17.5 µM, YFYPEL 0.03 µM, YQEPVLGPVRGPFPIIV 0.4 µM) + 1 mM probenecid, vs untreated cells. How it is done: The measurement of proton secretion from HGT-1 cells represents a well-established model for the identification of bitter compounds. By affecting extraoral bitter taste receptors with bitter compounds, a modulatory effect on proton secretion can be measured. For this purpose, cells were washed with KRHB and incubated with 3 μM of the intracellular pH indicator 1,5 carboxy-seminaphto-rhodafluor acetoxymethyl ester (SNARF-1-AM) under standard conditions. After 30 min, the cells were washed again with KRHB and then incubated with casein (0.01–10 μM equimolar related to the relevant forms αS1- and β-casein), hydrolysate (0.01–10 μM), or the peptides (0.01–200 μM). […] All substances were dissolved and diluted in KRHB. 1 mM histamine was used as a positive control. Measurements were performed using FlexStation 3 (Molecular Devices, USA). The excitation wavelength was 488 nm, and the emission wavelengths were 580 and 640 nm. For calibration (pH range 7.0–8.0), the intracellular and extracellular pH was adjusted with 2 μM nigericin in potassium buffer (20 mM NaCl, 110 mM KCl, 1 mM CaCl2, 1 mM MgSO4, 18 mM D-glucose, and 20 mM HEPES). The intracellular proton index (IPX) was calculated as the log2 value of the 580/640 ratio and compared with cells without treatment. Negative values represent increased secretion of protons and therefore stimulation of mechanisms regulating gastric acid secretion in HGT-1 cells. In contrast, positive values represent an inhibition of secretion compared to the untreated control.

Series [2] concerns MUC5AC. The settings on record: human intestinal cells; cited from earlier work. From the text:
(§1) In addition, transport through Caco-2 cell monolayers was ...

For series [3] the following is noted: cited from earlier work.
From the text: as §1

Series [4] has as its system Caco-2 cell monolayers. The settings on record: cited from earlier work.
From the text: as §1

On the set-up of series [5]: method as in PMID 1427989. As to conditions: cited from earlier work.
From the text: as §1

Series [6] deals with angiotensin-converting-enzyme. Also noted: method as in PMID 8201050. The settings on record: cited from earlier work.
From the text: as §1

The mark [7] stands for this setting: 0.1 µM, IPX = log2 of 580/640 ratio, negative = stimulated proton secretion.

As to “YFYPEL [bitter casein peptide αS1-CN144–149]”, the “ΔIPX (change in intracellular proton index vs untreated cells)” value in series [1] (setting [7]) is −0.253 ± 0.027. In series [1], the “proton secretion with peptide alone compared to untreated control cells” value is on record as “increased proton secretion”, the “concentration with the lowest IPX value (minimum of curve fit; highest impact on secretory activity)” value (from here on “concentration with the lowest IPX value”) was determined as 0.03 µM and the “ΔIPX on co-incubation with probenecid” value is given as −0.001 ± 0.019. For the same substance, in series [2], the “effect on expression of MUC5AC” value is given as “increase the expression of MUC5AC”.
As for “YQEPVLGPVRGPFPIIV [bitter casein peptide βA1/A2-CN193–209]”, the “ΔIPX (change in intracellular proton index vs untreated cells)” value in series [1] (setting [7]) was −0.203 ± 0.048. In series [1], the “proton secretion with peptide alone compared to untreated control cells” value was “increased proton secretion”, the “concentration with the lowest IPX value” value was found to be 0.4 µM and the “ΔIPX on co-incubation with probenecid” value is listed as −0.020 ± 0.036. Besides, the antimicrobial ability result in series [3] is listed as “antimicrobial”. Further, the “transport through Caco-2 cell monolayers” value in series [4] is “transport through Caco-2 cell monolayers was observed”. Besides, the immunomodulatory ability result in series [5] was “immunomodulatory abilities”. The angiotensin-converting-enzyme inhibitory activity result in series [6] is given as “angiotensin-converting-enzyme inhibitory activity”.
As to “VAPFPEVF [bitter casein peptide αS1-CN25–32]”, the “ΔIPX (change in intracellular proton index vs untreated cells)” value in series [1] (10 µM, negative = stimulated, positive = inhibited proton secretion) is −0.286 ± 0.037. In series [1], the “proton secretion with peptide alone compared to untreated control cells” value was “increased proton secretion”, the “concentration with the lowest IPX value” value was 17.5 µM and the “ΔIPX on co-incubation with probenecid” value was “+0.043 ± 0.031”.
